Laboratory results taken from ChEMBL document CHEMBL3885861, “Open TG-GATES”.

Species on record: Rattus norvegicus
Assay: Open TG-GATES - Regimen: Daily Repeat
Type: toxicity, organism-based, Sprague-Dawley
Parameters: regimen Daily Repeat, gender Male, age 6 weeks
Conditions: in vivo, po, 100 mg/kg, route gavage, dose level High; for APTT / Bas / Eos / Fbg / Hb / Ht / Lym / MCH / MCHC / MCV / Mono / Neu / PT / Plat / RBC / Ret / WBC: tissue Blood; for KIDNEY_L / KIDNEY_R / KIDNEY_TOTAL: tissue Kidney; for LIVER: tissue Liver; for A/G / ALP / ALT / AST / BUN / CRE / Ca / Cl / DBIL / GLC / IP / K / LDH / Na / PL / RALB / TBIL / TC / TG / TP / gamma-GTP: tissue Plasma

## O=C1CN(/N=C/c2ccc([N+](=O)[O-])o2)C(=O)N1 [NITROFURANTOIN]
72 h, time 3 day
  TERMINAL_BW: 241.1 g
  APTT: 17.7 s
  Bas: 0%
  Eos: 1%
  Fbg: 231 mg/dL
  Hb: 13.4 g/dL
  Ht: 37.9%
  Lym: 77.8%
  MCH: 21.4 pg
  MCHC: 35.5%
  MCV: 60.5 fL
  Mono: 3.2%
  Neu: 15.2%
  PT: 12.4 s
  Plat: 130.5 x10_4/uL
  RBC: 628.2 x10_4/ul
  Ret: 4.9%
  WBC: 70.5 x10_2/uL
  KIDNEY_L: 1.1 g
  KIDNEY_R: 1.1 g
  KIDNEY_TOTAL: 2.2 g
  LIVER: 11.7 g
  A/G: 1.5
  ALP: 909.6 IU/L
  ALT: 35.2 IU/L
  AST: 67.8 IU/L
  BUN: 14.2 mg/dL
  CRE: 0.4 mg/dL
  Ca: 10.6 mg/dL
  Cl: 100.6 meq/L
  DBIL: 0.1 mg/dL
  GLC: 209.4 mg/dL
  IP: 7.1 mg/dL
  K: 3.9 meq/L
  LDH: 220.2 IU/L
  Na: 139.6 meq/L
  PL: 153.8 mg/dL
  RALB: 3.3 g/dL
  TBIL: 0.1 mg/dL
  TC: 75 mg/dL
  TG: 110.8 mg/dL
  TP: 5.4 g/dL
  gamma-GTP: 1 IU/L
[…], time 7 day
  TERMINAL_BW: 266.8 g
  APTT: 18.4 s
  Bas: 0%
  Eos: 1%
  Fbg: 217.8 mg/dL
  Hb: 13.5 g/dL
  Ht: 38.1%
  Lym: 82.6%
  MCH: 21.6 pg
  MCHC: 35.4%
  MCV: 61.1 fL
  Mono: 2.2%
  Neu: 13.2%
  PT: 12.8 s
  Plat: 124 x10_4/uL
  RBC: 624.8 x10_4/ul
  Ret: 5.1%
  WBC: 120.6 x10_2/uL
  KIDNEY_L: 1.2 g
  KIDNEY_R: 1.2 g
  KIDNEY_TOTAL: 2.5 g
  LIVER: 12.6 g
  A/G: 1.5
  ALP: 995.4 IU/L
  ALT: 31.2 IU/L
  AST: 63.8 IU/L
  BUN: 16 mg/dL
  CRE: 0.4 mg/dL
  Ca: 10.8 mg/dL
  Cl: 102.2 meq/L
  DBIL: 0.1 mg/dL
  GLC: 187 mg/dL
  IP: 7 mg/dL
  K: 4.1 meq/L
  LDH: 218.8 IU/L
  Na: 140.4 meq/L
  PL: 142.4 mg/dL
  RALB: 3.4 g/dL
  TBIL: 0.2 mg/dL
  TC: 70.2 mg/dL
  TG: 111 mg/dL
  TP: 5.7 g/dL
  gamma-GTP: 1 IU/L
[…], time 14 day
  TERMINAL_BW: 314.4 g
  APTT: 19.8 s
  Bas: 0%
  Eos: 0.8%
  Fbg: 225.4 mg/dL
  Hb: 14.2 g/dL
  Ht: 40.7%
  Lym: 81.8%
  MCH: 19.8 pg
  MCHC: 34.8%
  MCV: 56.9 fL
  Mono: 2.2%
  Neu: 14.4%
  PT: 12.4 s
  Plat: 133.3 x10_4/uL
  RBC: 717.2 x10_4/ul
  Ret: 3.9%
  WBC: 115.5 x10_2/uL
  KIDNEY_L: 1.4 g
  KIDNEY_R: 1.4 g
  KIDNEY_TOTAL: 2.8 g
  LIVER: 14.5 g
  A/G: 1.4
  ALP: 864.2 IU/L
  ALT: 34.8 IU/L
  AST: 74 IU/L
  BUN: 15.4 mg/dL
  CRE: 0.4 mg/dL
  Ca: 10.3 mg/dL
  Cl: 102.2 meq/L
  DBIL: 0.084 mg/dL
  GLC: 214.8 mg/dL
  IP: 6.6 mg/dL
  K: 3.5 meq/L
  LDH: 208.8 IU/L
  Na: 140.8 meq/L
  PL: 158.8 mg/dL
  RALB: 3.4 g/dL
  TBIL: 0.1 mg/dL
  TC: 79.2 mg/dL
  TG: 110 mg/dL
  TP: 6 g/dL
  gamma-GTP: 1.6 IU/L
[…], time 28 day
  TERMINAL_BW: 380.6 g
  APTT: 20.5 s
  Bas: 0%
  Eos: 1%
  Fbg: 216.2 mg/dL
  Hb: 14.7 g/dL
  Ht: 42.6%
  Lym: 83.8%
  MCH: 18.9 pg
  MCHC: 34.6%
  MCV: 54.7 fL
  Mono: 2.4%
  Neu: 11.4%
  PT: 12.6 s
  Plat: 106 x10_4/uL
  RBC: 780.2 x10_4/ul
  Ret: 3.2%
  WBC: 143.7 x10_2/uL
  KIDNEY_L: 1.7 g
  KIDNEY_R: 1.7 g
  KIDNEY_TOTAL: 3.3 g
  LIVER: 16.2 g
  A/G: 1.5
  ALP: 573.8 IU/L
  ALT: 35.4 IU/L
  AST: 63.8 IU/L
  BUN: 15 mg/dL
  CRE: 0.5 mg/dL
  Ca: 10.3 mg/dL
  Cl: 104 meq/L
  DBIL: 0.1 mg/dL
  GLC: 218.6 mg/dL
  IP: 6 mg/dL
  K: 3.7 meq/L
  LDH: 159.4 IU/L
  Na: 141.2 meq/L
  PL: 155.2 mg/dL
  RALB: 3.6 g/dL
  TBIL: 0.2 mg/dL
  TC: 75.6 mg/dL
  TG: 109.8 mg/dL
  TP: 6 g/dL
  gamma-GTP: 0.8 IU/L
